The values below come from ChEMBL document CHEMBL5625272, “A PSMA-targeted doxorubicin small-molecule drug conjugate” (Bioorg Med Chem Lett, 2024).

The nature of series [1]: Drug uptake in PSMA positive human LNCaP C4-2B cells assessed as increase in fluorescence at 10 uM incubated for 10 mins in presence of CTT1057 by DAPI staining based confocal microscopy analysis. Format: ADME, cell-based.
Series [2] is described as follows: Drug uptake in human PC-3 cells with PSMA knockout assessed as increase in fluorescence at 10 uM incubated for 10 mins by DAPI staining based confocal microscopy analysis. Format: ADME, cell-based. Particulars: pc-3, 10 min; call rule not given here.
Series [3] is described as follows: Drug uptake in PSMA positive human LNCaP C4-2B cells assessed as increase in fluorescence at 10 uM incubated for 10 mins by DAPI staining based confocal microscopy analysis. Format: ADME, cell-based.
In series [4] the test system is LNCaP C4-2B. The series can be described thus: Anticancer activity against PMSA positive human LNCaP C4-2B cells assessed as reduction in cell viability measured after 72 hrs by celltiter-glo assay. Format: functional, cell-based. Particulars: dose 0.313-20 µM.
For series [5], the system named is PC-3. In words: Anticancer activity against human PC-3 cells with PSMA knockout cells assessed as reduction in cell viability measured after 72 hrs by celltiter-glo assay. Format: functional, cell-based. Particulars: dose 0.313-20 µM.
Series [6] deals with Glutamate carboxypeptidase 2 (Homo sapiens, UniProt Q04609). In words: Irreversible inhibition of PSMA (unknown origin).
Chain of Glutamate carboxypeptidase 2 (Q04609 whole entry): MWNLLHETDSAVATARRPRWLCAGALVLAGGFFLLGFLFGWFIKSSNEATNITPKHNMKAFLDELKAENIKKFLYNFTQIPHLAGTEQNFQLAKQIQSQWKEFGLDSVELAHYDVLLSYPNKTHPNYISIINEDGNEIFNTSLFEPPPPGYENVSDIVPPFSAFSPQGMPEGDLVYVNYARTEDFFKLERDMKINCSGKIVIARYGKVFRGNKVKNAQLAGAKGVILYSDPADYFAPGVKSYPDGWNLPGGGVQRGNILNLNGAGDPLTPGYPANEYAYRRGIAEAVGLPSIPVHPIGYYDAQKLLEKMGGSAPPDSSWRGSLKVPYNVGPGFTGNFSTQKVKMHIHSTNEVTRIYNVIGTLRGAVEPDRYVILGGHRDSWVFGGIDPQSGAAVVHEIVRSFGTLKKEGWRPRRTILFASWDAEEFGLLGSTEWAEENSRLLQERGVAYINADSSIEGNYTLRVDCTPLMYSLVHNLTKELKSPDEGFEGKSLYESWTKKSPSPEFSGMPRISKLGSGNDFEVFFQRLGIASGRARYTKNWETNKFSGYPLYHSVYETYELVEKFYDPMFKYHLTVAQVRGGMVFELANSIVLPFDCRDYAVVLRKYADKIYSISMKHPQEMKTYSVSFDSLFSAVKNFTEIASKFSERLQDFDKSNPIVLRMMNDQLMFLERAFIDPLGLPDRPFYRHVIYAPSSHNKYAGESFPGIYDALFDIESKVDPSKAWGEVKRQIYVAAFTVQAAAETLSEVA

In the case of `COc1cccc2c1C(=O)c1c(O)c3c(c(O)c1C2=O)C[C@@](O)(C(=O)CO)C[C@@H]3O[C@H]1C[C@H](NC(=O)OCc2ccc(NC(=O)[C@H](CCCNC(N)=O)NC(=O)[C@@H](NC(=O)c3ccc(Cn4nnc5c4-c4ccccc4CN(C(=O)CCCCC(=O)NCCCCCC(=O)N[C@@H](CCC(=O)N[C@@H](CCCOP(=O)(O)N[C@@H](CCC(=O)O)C(=O)O)C(=O)O)C(=O)O)c4ccccc4-5)cc3)C(C)C)cc2)[C@H](O)[C@H](C)O1`, the figures for the Drug uptake entry in series [1], in series [2] and in series [3] were “Not Active”, “Not Active” and “Active”, respectively. In addition, the Activity entry in series [4] and in series [5] was “Dose-Dependent Effect” each time.

In turn, `COc1cccc2c1C(=O)c1c(O)c3c(c(O)c1C2=O)C[C@@](O)(C(=O)CO)C[C@@H]3O[C@H]1C[C@H](N)[C@H](O)[C@H](C)O1` [DOXORUBICIN] returned an IC50 in series [6] of 10 µM.

As usually defined, the IC50 is the midpoint of a concentration-inhibition curve. A lower IC50 goes with higher potency.
